Patent US20130316958A1 (University of Southern California, priority 2010, published 2013)

What was measured:
[1] = system: HCT116, HaCat, and MEF cells; assay: GFP-LC3 autophagy with KSHV vFLIP in multiple cell types; type: cell-based; conditions: 2 μM rapamycin 3 hr
Protocol: During autophagy, an LC3 precursor (LC3-I) undergoes cleavage and lipidation to yield its processed form (LC3-II) (Mizushima et al. (2008) Nature 451:1069-1075). Immunoblotting was performed with an antibody against LC3 to further measure autophagic activity. NIH3T3-Vector, NIH3T3-KSHV-vFLIP, and NIH3T3-MCV-159L cells were treated with Hank's solution for 4 hr. Polypeptides were resolved by SDS-polyacrylamide gel electrophoresis (PAGE) and transferred to a PVDF membrane (Bio-Rad). […] The proteins were visualized by a chemiluminescence reagent (Pierce) and detected by a Fuji Phosphor Imager. A large portion of LC3-I was processed to LC3-II in NIH3T3-vector cells under starvation conditions, while little or no processed LC3-II was detected in NIH3T3-KSHV-vFLIP, NIH3T3-MCV-159L, NIH3T3-HVS-vFLIP, and NIH3T3-cFLIPs cells. Finally, the ability of FLIP to block autophagy in multiple cell types was evaluated. At 12-16 hr post-transfection with GFP-LC3, HCT116, HaCat, and MEF cells containing vector or KSHV vFLIP were treated with 2 μM rapamycin for 3 hr. Subsequently, GFP-LC3 was detected using an inverted fluorescence microscope and the autophagy levels quantified as means (±SD) of the results from three independent experiments.

[2] = target: T1, Atg3 (Homo sapiens, UniProt Q9NT62); assay: Co-immunoprecipitation of FLIP with Atg3 in HEK293T cells; type: binding; conditions: endogenously and exogenously expressed Atg3
T1 construct: GFP (alternative construct GFP-Atg3, not on the same molecule as GST); expressed in transfected cells; host or cells: HEK293T
T1 sequence (Q9NT62 whole entry): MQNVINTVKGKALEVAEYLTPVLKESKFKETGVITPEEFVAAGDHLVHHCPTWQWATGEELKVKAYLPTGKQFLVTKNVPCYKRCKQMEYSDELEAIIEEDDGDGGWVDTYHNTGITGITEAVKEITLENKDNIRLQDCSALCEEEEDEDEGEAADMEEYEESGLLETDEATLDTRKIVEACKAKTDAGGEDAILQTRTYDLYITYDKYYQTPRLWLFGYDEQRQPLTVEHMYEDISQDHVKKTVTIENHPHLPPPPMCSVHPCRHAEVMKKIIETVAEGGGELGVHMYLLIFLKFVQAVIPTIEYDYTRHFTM
Protocol: The ability of FLIP to bind to Atg3 was evaluated by co-immunoprecipitation assay. HEK293T cells were transfected with Flag-vFLIP and/or GFP-Atg3 or Flag-vFLIP and/or GST-Atg3, and at 48 hr post-transfection, cells were harvested and lysed in an NP40 buffer supplemented with complete protease inhibitor cocktail (Roche). After pre-clearing with protein A/G agarose beads for 1 hr at 4° C., whole-cell lysates were used for immunoprecipitation with αFlag, αGFP, or GST. Generally, 1-4 μg of the antibody was added to 1 ml of the cell lysate and incubated at 4° C. for 8 to 12 hr. The immunoprecipitates were then washed extensively with a lysis buffer and eluted by boiling them with an SDS loading buffer for 5 min. Following immunoprecipitation, samples were treated to immunoblot using αAtg3 (1:500) (Novus).

[3] = system: human Atg3 deletion mutants; assay: GST pulldown with Atg3 deletion mutants; type: binding; conditions: GST-Atg3, N-terminal and C-terminal regions
From the text: The overall structure of yeast Atg3 has a unique hammer-like shape with the N-terminal and C-terminal regions discretely responsible for Atg7 and Atg8 (equivalent to mammalian LC3) binding, respectively. (Yamada et al. (2007) J. Biol. Chem. 282:8036-8043). Based on the structure of yeast Atg3, human Atg3 deletion mutants fused with a GST mammalian expression vector were constructed: GST-Atg31-93, GST-Atg3193-268, GST-Atg3268-315, and GST-Atg3193-315-GST-tagged hATG3 and hATG3 mutant genes were cloned into a pcDNA5/FRT/TO derivative encoding an N-terminal GST epitope tag between the BamHI and NotI sites. GST pulldown with Flag-KSHV vFLIP, Flag-cFLIPs, Flag-MCV 159L, or Flag-HVS vFLIP along with GST-Atg3, GST-Atg3 N-terminal region (Nt), or GST-Atg3 C-terminal region (Ct) was performed as described above and was followed by immunoblotting with aFlag or aGST.

[4] = target: T2, Atg3-LC3 interaction (Homo sapiens, UniProt Q9NT62); assay: Competition of vFLIP with LC3 for Atg3 binding (GST pulldown); conditions: increasing amount of Flag-vFLIP, HEK293T
T2 construct: expressed in transfected cells; host or cells: HEK293T
T2 sequence (Q9NT62 whole entry): as above
Protocol: Due to identical Atg3 binding patterns seen in vFLIP and LC3, the ability of vFLIP to directly compete with LC3 for Atg3 binding was tested. HEK293T cells were transfected with GST-Atg3 and GFP-LC3 along with increasing amount of Flag-vFLIP. At 48 hr post-transfection, GST pulldown was performed as described above, followed by immunoblotting with αGFP or αFlag.

[5] = system: TREX-BCBL cells; assay: vFLIP expression in KSHV-infected BCBL1 cells: autophagy, growth suppression and death; type: cell-based
Protocol: To investigate whether vFLIP expression suppresses autophagy in virus-infected cells, a KSHV-infected BCBL1 cell line was constructed (TREX-BCBL) in which a Flag-tagged KSHV-vFLIP gene was integrated into the chromosomal DNA under the control of a tetracycline-inducible promoter. (Nakamura et al. (2003) J. Virol. 77:4205-4220). At 12-16 hr post-transfection with GFP-LC3, TREX-BCBL-Vector and TREX-BCBL-vFLIP cells were treated with Doxycycline for 24 hr, followed by incubation with 2 μM rapamycin for an additional 12 hr. The detection of GFP-LC3 and autophagy levels was performed as described above, vFLIP expression was detected by IB with anti-Flag, and autophagosomes were visualized by scanning EM (scale bar=50 nm). Treatment of these cells with doxycycline strongly activated Flag-vFLIP expression.
The effect of vFLIP on autophagy was tested in a KSHV-infected BCBL1 cell line. TREX-BCBL-Vector and TREX-BCBL-vFLIP cells were treated with rapamycin or left untreated for 6 days in the presence of doxycycline and subjected to scanning EM, to examine the morphologies of over 100 dead cells and quantify cell death for apoptosis and autophagic death, or subjected to PI staining and cell cycle analysis.
All siRNAs were produced by Dharmacon Research. siRNAs specific for human Beclin1 (5′[…]3′) and a nonspecific scrambled control siRNA were transfected using DharmaFect reagent (Dharmacon) according to the manufacturer's instructions. At 48-72 hr post-transfection, cells were analyzed for autophagy. Trypan blue staining and a Beckman Coulter Z2 Particle Count and Size analyzer were used to determine cell death (as a percentage) at day 5.

KSHV vFLIP: viral FLICE-like inhibitor protein of Kaposi's sarcoma-associated herpesvirus, expressed in cells
block of autophagy in multiple cell types [1]: efficiently blocked autophagy in a number of cell types
interaction with Atg3 (co-immunoprecipitation) [2]: strongly interacted with endogenously and exogenously expressed Atg3, even in the presence of a 1M NaCl salt concentration
Atg3 region bound (GST pulldown) [3]: independently bound either the aa193-268 or aa268-315 region of the C-terminal of Atg3
effect on Atg3-LC3 interaction [4]: marked decrease of Atg3-LC3 interaction
block of rapamycin-induced autophagy and cell death ([5]; TREX-BCBL-vFLIP cells): readily blocked rapamycin-induced autophagy and cell death
inhibition of peptide-induced autophagy and cell death ([5]; TREX-BCBL-vFLIP cells): minimal
suppression of rapamycin-induced autophagy in TREX-BCBL cells ([5]; doxycycline 24 hr, 2 μM rapamycin 12 hr): extensively suppressed rapamycin-induced autophagy
block of rapamycin- or zVAD-induced growth suppression and autophagic death ([5]; ectopic expression in BCBL1 cells): almost completely blocked
